ChEMBL document CHEMBL3045921, “Synthesis and Acaricidal Activity of Pyrazole-5-carboxamide Derivatives” (1991)

How the values were obtained:
Format in all cases: functional
Settings in all cases: 120 h
[1] = tested on: Tetranychus urticae; assay: Acaricidal activity against Tetranychus urticae (two-spotted spider mite) in kidney bean leaf assessed as mortality at 500 ppm at 25 degC measured after 5 days
[2] = tested on: Tetranychus urticae; assay: Acaricidal activity against Tetranychus urticae (two-spotted spider mite) in kidney bean leaf assessed as mortality at 3.1 ppm at 25 degC measured after 5 days
[3] = tested on: Tetranychus urticae; assay: Acaricidal activity against Tetranychus urticae (two-spotted spider mite) in kidney bean leaf assessed as mortality at 200 ppm at 25 degC measured after 5 days
[4] = tested on: Tetranychus urticae; assay: Acaricidal activity against Tetranychus urticae (two-spotted spider mite) in kidney bean leaf assessed as mortality at 50 ppm at 25 degC measured after 5 days
[5] = tested on: Tetranychus urticae; assay: Acaricidal activity against Tetranychus urticae (two-spotted spider mite) in kidney bean leaf assessed as mortality at 12.5 ppm at 25 degC measured after 5 days

SMILES	mortality at 500 ppm [1]	mortality at 3.1 ppm [2]	mortality at 200 ppm [3]	mortality at 50 ppm [4]	mortality at 12.5 ppm [5]
CCc1nn(C)c(C(=O)NCc2ccc(C(C)C)cc2)c1Cl	100%	0%	100%	100%	30%
CCCCCCCCc1ccc(CNC(=O)c2c(Cl)c(CC)nn2C)cc1	100%	0%	80%	30%	0%
CCc1nn(C)c(C(=O)NCc2ccc([N+](=O)[O-])cc2)c1Cl	0%		0%	0%	
CCCCc1ccc(CNC(=O)c2c(Cl)c(CC)nn2C)cc1	100%	0%	100%	100%	80%
CCc1nn(C)c(C(=O)NCc2ccc(CC(C)C)cc2)c1Cl	100%	0%	100%	80%	30%
CCc1nn(C)c(C(=O)NCc2ccc(C(C)CC)cc2)c1Cl (configuration not stated)	100%	0%	100%	100%	0%
CCCCCc1ccc(CNC(=O)c2c(Cl)c(CC)nn2C)cc1	100%	30%	100%	100%	80%
CCc1nn(C)c(C(=O)NCc2ccc(CC(C)(C)C)cc2)c1Cl	100%	0%	100%	100%	80%
CCCCCCc1ccc(CNC(=O)c2c(Cl)c(CC)nn2C)cc1	100%	0%	80%	30%	0%
CCc1nn(C)c(C(=O)NCc2ccc([Si](C)(C)C)cc2)c1Cl	100%	0%	100%	100%	80%
CCc1nn(C)c(C(=O)NCc2ccc(OC)cc2)c1Cl	0%		0%	0%	
CCOc1ccc(CNC(=O)c2c(Cl)c(CC)nn2C)cc1	0%		0%	0%	
CCCOc1ccc(CNC(=O)c2c(Cl)c(CC)nn2C)cc1	100%		80%	0%	
CCc1nn(C)c(C(=O)NCc2ccc(OC(C)C)cc2)c1Cl	80%		30%	0%	
CCCCOc1ccc(CNC(=O)c2c(Cl)c(CC)nn2C)cc1	100%		80%	30%	
CCc1nn(C)c(C(=O)NCc2ccc(OC(F)F)cc2)c1Cl	80%		30%	0%	
CCc1nn(C)c(C(=O)NCc2ccc(OCC(F)(F)F)cc2)c1Cl	80%		30%	0%	
CCOCCOc1ccc(CNC(=O)c2c(Cl)c(CC)nn2C)cc1	80%		30%	0%	
CCOCc1ccc(CNC(=O)c2c(Cl)c(CC)nn2C)cc1	100%		80%	0%	
CCc1nn(C)c(C(=O)NCc2ccc(N)cc2)c1Cl	0%		0%	0%	
CCCNc1ccc(CNC(=O)c2c(Cl)c(CC)nn2C)cc1	80%		0%	0%	
CCc1nn(C)c(C(=O)NCc2ccc(SC)cc2)c1Cl	100%		80%	0%	
CCc1nn(C)c(C(=O)NCc2ccc([S+](C)[O-])cc2)c1Cl (configuration not stated)	0%		0%	0%	
CCc1nn(C)c(C(=O)NCc2ccc(S(C)(=O)=O)cc2)c1Cl	0%		0%	0%	
CCc1nn(C)c(C(=O)NCc2ccc(C#N)cc2)c1Cl	0%		0%	0%	
CCc1nn(C)c(C(=O)NCc2ccc(C(F)(F)F)cc2)c1Cl	100%		80%	30%	
CCc1nn(C)c(C(=O)NCc2ccc(Br)cc2)c1Cl	0%		0%	0%	
Cc1nn(C)c(C(=S)NCc2ccc(C(C)(C)C)cc2)c1Cl	80%		30%	0%	
